# According to patent US20090074885A1, “Reversible Hydrophobic Modification of Drugs for Improved Delivery to Cells” (Roche Madison Inc., priority 2003, published 2009):
# Like-named read-outs stand apart in the source and are kept apart here.
# Key:
# [1] = tested on: SK-OV-3 cells; experiment: Uptake of PI mixed with hydrophobic derivative (membrane damage test), SK-OV-3; type: cell-based, human; settings: compared to cells treated with PI alone
# Protocol: (§1) For experiments conducted with IV, the cells were plated on 6-well plates with cover slips. Following treatment as above, the cover slip was immediately removed and inverted over 1 drop of media for imaging, or the cells were incubated for 1 h prior to removal of the cover slip and imaging. Imaging was conducted on an Axioplan2 fluorescent microscope (Zeiss) and the same fields were imaged with phase contrast illumination, in the rhodamine fluorescence channel (λex=BP 450/12, λem=LP 590 nm filter set), and in the fluorescein fluorescent channel (λex=BP 546/90, λem=LP 515 nm filter set). IV was also mixed with PI and then delivered to SK-OV-3 cells, and the cells were imaged as before. In one protocol, equal amounts of IV (15.0 mM in DMSO) and PI (15.0 mM in DMSO) were combined and the resulting solution was added to cells via the mixing chamber. In a second method, PI was taken up in the ITG solution (0.748 mM) and mixed with IV (7.48 mM in DMSO) in the mixing chamber. Similarly, V (15 mM and 30 mM in DMSO) was mixed with PI and delivered to Hepa 1-6 and SK-OV-3 cells using the second method. The cells were imaged as before following 30 sec-4 min exposure to the drug solution.
# [2] = tested on: SK-OV-3 (human ovarian carcinoma); experiment: WST cytotoxicity assay, SK-OV-3; type: cell-based
# Protocol: (§2) Antiproliferative/Cytotoxic in vitro studies on PI, RRH-PI prodrugs, melphalan, and C12PMMA-melphalan. In vitro cytotoxicity testing was conducted on Hepa 1-6 (mouse hepatoma), SK-OV-3 (human ovarian carcinoma), and MC38 (mouse colon carcinoma) cells using a tetrazolium based assay (WST, Dojindo Molecular Technologies). For the WST assay, Hepa 1-6 (2.0×10^5 cells well), SK-OV-3 (7.5×10^5 cells well), and MC38 (8.5×10^5 cells well) were seeded in 1000 μL media into 12-well plates 24 h prior to testing (starting confluency ˜50%). Following removal of media, drug/prodrug solution was added drop-wise to quadruplicate wells, using the mixing chamber. Effective drug concentrations were calculated from the amount of drug added in the total volume of OS and aqueous solution. Following 4 min of drug solution exposure, the solution was removed, and 1000 μl fresh complete media was added to each well. After the cells were incubated for 24-48 h, WST-1 (20 μl of a 5 mM solution in PBS) and N-methylphenazonium methyl sulfate (PMS, 20 μl 0.2 mM solution in PBS) were added and the cells were incubated for 1-4 h. For testing with MC38 cells, the amounts of WST-1 and PMS were doubled. Following incubation, 100 μl of sample was transferred to quadruplicate wells on a 96-well plate, and the absorbance (438 nm) values were measured on a SPECTRAmax Plus^384 microplate spectrophotometer (Molecular Devices Corporation). Data represents the mean A438 values of 16 wells with standard deviation, corrected for media contribution, and normalized against cells in media with no drug/prodrug treatment (reported as % cell viability±standard deviation).
# (§3) The concentration of drug (μM) that is required for 50% inhibition in vitro is reported as the IC50. The reported values were calculated from the best fit line (Excel) for a plot of effective drug concentration against % cell viability, and include the r^2 value. The reported IC50 values for multiple RRH-PI plots are reported as IC50 (μM)±standard deviation.
# [3] = tested on: Hepa 1-6 (mouse hepatoma); experiment: WST cytotoxicity assay, Hepa 1-6; type: cell-based
# Protocol: as §2, §3
# [4] = Dynamic light scattering particle size; type: physicochemical; settings: following mixing with ITG through mixing chamber
# Protocol: (§4) Light Scattering analysis of prodrugs. Particle size was determined by dynamic light scattering on a Zeta Plus (Zeta Potential Analyzer, Brookhaven Instrument Corporation, λ 533 nm, 90°), and results are reported as the size of the most abundant particle (range of particle sizes, counts sec^−1). Fluorescent compounds were also analyzed for particles qualitatively, by measuring for light scattering on a Cary Eclipse Fluorescence Spectrophotometer (Varian Inc.), with λex=λem (300-800 nm, 90° detection). The presence of particles in solution results in an increase in signal detection at 90°. PI and RRH-PI prodrugs were 7.48 mM in DMSO. Melphalan and V were 50 mM in DMSO. The drug/prodrug solutions were mixed and diluted with ITG through the mixing chamber (40 μl OS and 400 μl ITG), and analyzed immediately.
# [5] = Analysis of prodrug lability (rate of hydrolysis) of PI derivatives by fluorescent spectroscopy; type: physicochemical; settings: extrapolated to pure buffer (100 mol % H2O)
# Protocol: (§5) Analysis of prodrug lability. The prodrugs were tested for their rate of hydrolysis at pH 6.0, 7.2 and 8.5 using fluorescent spectroscopy. Lability studies for C12CON-PI and RRH-PI (rapidly reversible hydrophobic-PI) derivatives were conducted on a Cary Eclipse Fluorescence Spectrophotometer (Varian Inc.).
# To solutions of PI and RRH-prodrugs of PI (7.48 μM in DMSO) were added various amounts of buffer (25 μL, 50 μL, and 100 μL of 20 mM Hepes buffer) at different pH. Upon cleavage of the hydrophobic modification and regeneration of PI, the fluorescence of the solution increased (λex=493 nm, λem=647 nm, excitation and emission slit width=5 nm, and emission PMT=600V) and was assayed as a function of time (20 min).
# (§6) The resulting curves were normalized for intensity and fit to an exponential equation (Origin) to determine kdetermined for each solution. The kdetermined for each compound at appropriate pH were plotted against the mol % of H2O, and the best fit line was solved for kbuffer for 100 mol % H2O. These derived kbuffer values were used to determine the half-life of the prodrug in pure buffer according to the equation t1/2=1n2/k.
# [6] = tested on: SK-OV-3 (human ovarian carcinoma) cells; experiment: In vitro cellular uptake by fluorescence microscopy, SK-OV-3; type: cell-based; settings: fluorescein channel
# Protocol: In Vitro cellular uptake of PI, RRH-PI compounds, and IV evaluated by fluorescence measurements. […] Adherent cells were plated at 2.5×10^5 cells/well on 6-well plates 24 h prior to testing. The growth media was removed from individual wells and the drug/prodrug was immediately added to the well with the mixing chamber. […] After 30 sec the drug solution was removed (aspirated) and 2 ml complete media was added to the cells. Experiments conducted with prodrug that was hydrolyzed prior to application to the cells followed a similar protocol, however the combined solution obtained after passing through the mixing chamber was collected and allowed to sit at ambient temperature for 5 min prior to application on the cells. Experiments conducted with Calcein AM (Invitrogen, 100 μl of 20 μM solution in complete media) followed a similar protocol for drug treatment (4 min treatment). Experiments conducted with SYTOX Green (Invitrogen) followed a similar protocol for drug treatment. […] Each condition was repeated in 2 or 3 wells, and the cells were immediately examined by microscopy. Fluorescent microscopy studies were conducted with a three laser LSM 510 confocal microscope, an Axiovert S100 fluorescent microscope, or an Axioplan2 fluorescent microscope (all Zeiss) equipped with filter sets for the rhodamine fluorescence channel (λex=BP 450/12, λem=LP 590 nm filter set) and the fluorescein fluorescent channel (λex=BP 546/90, λem=LP 515 nm filter set). Imaging was performed with an AxioCam digital camera (Zeiss), with AxioVision imaging software (V 4.5, Zeiss). For all images, identical camera settings and exposure times were used on comparative sample and control images. Images were processed with Photoshop (Adobe) for level and brightness using identical settings between sample and control images. For experiments conducted with IV, the cells were plated on 6-well plates with cover slips. […] Imaging was conducted on an Axioplan2 fluorescent microscope (Zeiss) and the same fields were imaged with phase contrast illumination, in the rhodamine fluorescence channel (λex=BP 450/12, λem=LP 590 nm filter set), and in the fluorescein fluorescent channel (λex=BP 546/90, λem=LP 515 nm filter set). IV was also mixed with PI and then delivered to SK-OV-3 cells, and the cells were imaged as before. In one protocol, equal amounts of IV (15.0 mM in DMSO) and PI (15.0 mM in DMSO) were combined and the resulting solution was added to cells via the mixing chamber. In a second method, PI was taken up in the ITG solution (0.748 mM) and mixed with IV (7.48 mM in DMSO) in the mixing chamber. […] The cells were imaged as before following 30 sec-4 min exposure to the drug solution.
# [7] = Qualitative 90° light scattering for particles; type: physicochemical; settings: relative to ITG or PI in ITG
# Protocol: as §4
# [8] = Hydrolysis of V monitored by reaction of liberated melphalan with fluorescamine; type: physicochemical; settings: pH 6.0; for Half-life: extrapolated to pure buffer (100 mol % H2O)
# Protocol: as §5
# Alternatively, to solutions of fluorescamine (857 μM in DMSO) were added various amounts of buffer (20 μL, 30 μL, 40 μL, 50 μL, and 70 μL of 100 mM MES buffer, pH 6.0) followed by melphalan or V (249 μM final concentration in DMSO). The fluorescence of the solution (λex=380 nm, λem=464 nm, excitation and emission slit width=5 nm, and emission PMT=600V) was assayed as a function of time (40 min). At each buffer concentration the reaction of fluorescamine and melphalan was more rapid than hydrolytic breakdown of V.
# as §6
# [9] = tested on: Hepa 1-6; experiment: Uptake of PI mixed with hydrophobic derivative (membrane damage test), Hepa 1-6; type: cell-based, mouse; settings: compared to PI alone
# Protocol: as §1
# [10] = Trypan blue assay for membrane disruption; type: cell-based
# [11] = tested on: MC38 (mouse colon carcinoma); experiment: WST cytotoxicity assay, MC38; type: cell-based; settings: MC38, 4 min drug exposure, WST 48 h after
# Protocol: as §2, with “For testing with MC38 cells, the amounts of WST-1 and PMS were doubled.” left out, “Data represents the mean A438 values of 16 wells with standard deviation, corrected for media contribution, and normalized against cells in media with no drug/prodrug treatment (reported as % cell viability±standard deviation).” left out
# [12] = tested on: B16 murine melanoma cells; experiment: CellTiter-Glo luminescent cell viability assay; type: cell-based; settings: 10 min drug solution exposure, 3 h in media, 24 h culture; up to 112 μl delivery solution per well
# Protocol: Cells were seeded at 1×10^4 cells/well in 100 μl of media into 96-well plates on day 0 and cultured for 24 h prior to addition of drug. […] Following 10 min of drug solution exposure, 100 μl of fresh media was added to each well and incubated for 3 h. Drug-containing media was replaced with 100 μl of fresh media and cultured for and additional 24 h.
# [13] = SK-OV-3, 4 min drug exposure, WST 48 h after, read-out: Mean IC50
# [14] = Hepa 1-6, 4 min drug exposure, WST 48 h after, read-out: Mean IC50
smiles,measurement,setting,value
"CCCCCCCCCCCC(=O)Nc1ccc2c(c1)c(-c1ccccc1)[n+](CCC[N+](C)(CC)CC)c1cc(NC(=O)CCCCCCCCCCC)ccc21.[I-].[I-] [IV, 3,8-bis-undecylcarbanylamino 5-(3,3-diethyl-3-methylammoniumpropyl) 6-phenyl phenanthridinium diiodide]",nuclear PI staining when delivered together with PI,[1],no increased levels of nuclear PI staining detected
same,IC50,"[2]; SK-OV-3, 4 min drug exposure, WST 24 h after, read-out: Mean IC50",455 µM
same,IC50,[2]; [13],342 µM
same,IC50,"[3]; Hepa 1-6, 4 min drug exposure, WST 24 h after, read-out: Mean IC50",585 µM
same,IC50,[3]; [14],429 µM
same,range of particle sizes,[4],28-42 nm
same,size of the most abundant particle,[4],36 nm
same,Half-life,[5]; pH 7.2,non-labile
same,Half-life,[5]; pH 8.5,non-labile
same,fluorescent signal localisation,[6]; after one hour incubation,more defined punctate signal
same,fluorescent signal localisation,[6]; immediately following application,diffuse signal was observed along the cell membrane
same,increase in 90° light scattering signal intensity,[7],15 fold
"CCCCCCCCCCCCNC(=O)CCC(=CCC(=O)O)C(=O)NC(Cc1ccc(N(CCCl)CCCl)cc1)C(=O)O (centres unmarked) [V, 3,9-diaza, 2-[4-{bis(2-chloroethyl)amino}phenylmethyl], 5-(2-carboxylethylidine), 4,8-dioxo uncosanoic acid]",nuclear PI staining when delivered together with PI,[1],no increased levels of nuclear PI staining were observed
same,k,[8],(1.62 min^−1)
same,Half-life,[8],28 s
same,Half-life,[8]; listed as C12PMMA-Melphalan (V),25.7 s
same,IC50,[2]; [13],384 µM
same,IC50,[3]; [14],330 µM
same,range of particle sizes,[4],36-66 nm
same,size of the most abundant particle,[4],36 nm
same,nuclear PI staining when delivered together with PI,[9],no increased levels of nuclear PI staining were observed
same,generalized membrane disruption,[10],neither V or methyl aniline silylated with chloro(dimethyl)octadecylsilane caused generalized membrane disruption
same,IC50,[11],304 µM
"N[C@@H](Cc1ccc(N(CCCl)CCCl)cc1)C(=O)O [Melphalan, reference compound]",viability at 1458 µM,"[2]; Homo sapiens, SK-OV-3, 48 h, read-out: cell viability at highest concentration tested, SK-OV-3, 48 h, 1458 μM",70 ± 11%
same,IC50,"[2]; Homo sapiens, SK-OV-3, read-out: Mean IC50",> 1460 µM
same,viability at 1458 µM,"[3]; Mus musculus, Hepa1-6, 48 h, read-out: cell viability at highest concentration tested, Hepa 1-6, 48 h, 1458 μM",81%
same,IC50,"[3]; Mus musculus, Hepa1-6, read-out: Mean IC50",> 1460 µM
same,IC50,"[11]; Mus musculus, MC-38",1180 µM
"CCCCCCCCCCCCCCCCCC[Si](C)(C)N.CCCCCCCCCCCCCCCCCC[Si](C)(C)N.[Cl][Pt][Cl] [BDMODS-CP, Cl2Pt(NH2Si(CH3)2C18H37)2]",antiproliferative/cytotoxic effect (RLU),[12],complete cytotoxic effect
